Test results published in patent US8791132B2, “Compounds and methods for treatment of hypertension” (Medivation Technologies, Inc., priority 2011, dated 2014).
Where “and” joins values, the source holds several entries; their conditions need not be identical. Equal values may be shown once.

How the values were obtained:
[1] = biological target: T1, human recombinant adrenergic α2A receptor (Homo sapiens, UniProt P08913); assay: Radioligand binding, adrenergic α2A ([3H]MK-912); conditions: compound at 0.1 μM, [3H]MK-912, repeat assays, each datapoint shown; for Percentage inhibition of ligand binding, Adrenergic α2A: 0.1 µM; for inhibition at 0.1 µM: read-out: Percentage inhibition of ligand binding, Adrenergic α2A
T1 construct: expressed in transfected cells; host or cells: insect Sf9 cells
T1 sequence (P08913 1-465): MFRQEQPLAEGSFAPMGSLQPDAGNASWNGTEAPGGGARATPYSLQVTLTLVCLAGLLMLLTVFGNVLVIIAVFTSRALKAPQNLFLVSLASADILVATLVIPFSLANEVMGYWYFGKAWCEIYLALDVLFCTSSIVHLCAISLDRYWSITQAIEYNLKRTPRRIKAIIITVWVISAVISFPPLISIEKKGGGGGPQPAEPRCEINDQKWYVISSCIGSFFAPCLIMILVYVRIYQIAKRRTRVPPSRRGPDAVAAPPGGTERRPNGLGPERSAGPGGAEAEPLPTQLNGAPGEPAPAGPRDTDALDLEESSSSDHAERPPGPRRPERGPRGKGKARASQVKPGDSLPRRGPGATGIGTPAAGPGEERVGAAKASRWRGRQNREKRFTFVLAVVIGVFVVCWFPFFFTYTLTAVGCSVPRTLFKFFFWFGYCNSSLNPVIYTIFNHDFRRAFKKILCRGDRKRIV
Outline: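 Sf9 membranes, 1 nM [3H]MK-912, 60 min, 25 °C, Tris-HCl pH 7.4/MgCl2/EDTA buffer. NSB: 10 μM WB-4101. Filtration, counting; % inhibition of specific binding.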

[2] = biological target: T2, human recombinant adrenergic α2B receptor (Homo sapiens, UniProt P18089); assay: Radioligand binding, adrenergic α2B ([3H]Rauwolscine); conditions: for Percentage inhibition of ligand binding, Adrenergic α2B / inhibition at 0.03 µM: compound at 0.03 μM; for Percentage inhibition of ligand binding, Adrenergic α2B: 0.03 µM
T2 construct: expressed in transfected cells; host or cells: CHO-K1
T2 sequence (P18089 1-450): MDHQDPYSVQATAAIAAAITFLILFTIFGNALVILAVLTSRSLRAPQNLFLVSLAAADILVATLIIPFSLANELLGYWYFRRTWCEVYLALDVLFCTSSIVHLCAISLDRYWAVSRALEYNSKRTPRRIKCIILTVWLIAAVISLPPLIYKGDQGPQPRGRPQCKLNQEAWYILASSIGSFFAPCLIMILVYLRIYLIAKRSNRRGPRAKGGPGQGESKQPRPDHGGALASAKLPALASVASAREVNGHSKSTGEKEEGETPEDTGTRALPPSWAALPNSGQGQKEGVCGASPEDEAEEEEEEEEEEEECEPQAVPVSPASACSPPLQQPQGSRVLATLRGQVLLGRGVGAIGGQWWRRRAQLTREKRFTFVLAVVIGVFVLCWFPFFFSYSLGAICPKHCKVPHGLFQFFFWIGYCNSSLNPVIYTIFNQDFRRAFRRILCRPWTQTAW
Outline: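 Membranes from CHO-K1 cells expressing human recombinant α2B, in 50 mM Tris-HCl pH 7.4, 12.5 mM MgCl2, 1 mM EDTA, 0.2% BSA, incubated with compound and 2.5 nM [3H]Rauwolscine, 60 min, 25 °C.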

[3] = biological target: T3, rat adrenergic α1B receptor (Rattus norvegicus, UniProt P15823); assay: Radioligand binding, adrenergic α1B ([3H]Prazosin); conditions: compound at 0.1 μM, [3H]Prazosin, repeat assays, each datapoint shown; for inhibition at 0.1 µM: read-out: Percentage inhibition of ligand binding, Adrenergic α1B
T3 construct: rat adrenergic α1B receptor obtained from Wistar Rat liver; from tissue; host or cells: Wistar rat liver
T3 sequence (P15823 1-515): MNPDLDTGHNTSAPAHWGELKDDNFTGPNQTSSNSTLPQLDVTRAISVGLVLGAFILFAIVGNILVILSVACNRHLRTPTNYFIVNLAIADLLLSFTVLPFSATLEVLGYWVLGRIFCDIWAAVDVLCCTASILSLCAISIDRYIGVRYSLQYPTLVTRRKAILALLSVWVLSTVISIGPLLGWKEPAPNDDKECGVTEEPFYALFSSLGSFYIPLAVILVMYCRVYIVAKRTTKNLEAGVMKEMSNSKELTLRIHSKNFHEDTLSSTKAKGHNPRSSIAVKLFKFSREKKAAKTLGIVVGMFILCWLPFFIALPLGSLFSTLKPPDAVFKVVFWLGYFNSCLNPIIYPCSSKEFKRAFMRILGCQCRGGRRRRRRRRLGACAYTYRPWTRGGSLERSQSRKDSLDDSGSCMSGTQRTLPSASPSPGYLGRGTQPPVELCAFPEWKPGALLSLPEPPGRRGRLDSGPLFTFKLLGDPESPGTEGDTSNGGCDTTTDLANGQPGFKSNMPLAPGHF
Outline: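 Rat α1B receptor from Wistar rat liver was incubated with 0.25 nM [3H]prazosin for 60 min at 25 °C in 50 mM Tris-HCl, pH 7.4, 0.5 mM EDTA. Non-specific binding was defined with 10 μM phentolamine. Bound radioligand was measured by filtration and counting, reported as percent inhibition of specific binding.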

[4] = [3H]Rauwolscine, repeat assays, each datapoint shown
[5] = [3H]Rauwolscine, repeat assays, each datapoint shown, read-out: Percentage inhibition of ligand binding, Adrenergic α2B

Compound | Percentage inhibition of ligand binding, Adrenergic α2A [1] | Percentage inhibition of ligand binding, Adrenergic α2B [2, 4] | Percentage inhibition of ligand binding, Adrenergic α1B ([3]; 0.1 µM) | other results
CN1Cc2c(n(CC(O)c3ccncc3)c3ncccc23)C(C)(C)C1 (single isomer, unassigned) [17a, 1-pyridin-4-yl-2-(6,8,8-trimethyl-5,6,7,8-tetrahydro-1,6,9-triaza-fluoren-9-yl)-ethanol] | 19% | 32% | 13% | –
CN1Cc2c(n(CC(O)c3ccncc3)c3ncccc23)C(C)(C)C1 (single isomer, unassigned) [17b, 1-pyridin-4-yl-2-(6,8,8-trimethyl-5,6,7,8-tetrahydro-1,6,9-triaza-fluoren-9-yl)-ethanol] | 9% | 20% | 16% | –
Cc1ccc2c(c1)c1c(n2CC(O)c2ccc(F)cc2)CN(C)CC1 (single isomer, unassigned) [18a, 2-(2,6-dimethyl-1,2,3,4-tetrahydro-β-carbolin-9-yl)-1-(4-fluoro-phenyl)-ethanol] | – | – | 55% | inhibition at 0.1 µM [1]: 50%; inhibition at 0.03 µM [2, 5]: 54%
Cc1ccc2c(c1)c1c(n2CC(O)c2ccc(F)cc2)CN(C)CC1 (single isomer, unassigned) [18b, 2-(2,6-dimethyl-1,2,3,4-tetrahydro-β-carbolin-9-yl)-1-(4-fluoro-phenyl)-ethanol] | 32% | 61% | 87% | –
Cc1ccc2c(c1)c1c(n2CC(C)(O)c2ccncc2)CN(C)CC1 (single isomer, unassigned) [19a, 1-(2,6-dimethyl-1,2,3,4-tetrahydro-β-carbolin-9-yl)-2-pyridin-4-yl-propan-2-ol] | 21% | 75% | – | inhibition at 0.1 µM [3]: 75%
Cc1ccc2c(c1)c1c(n2CC(C)(O)c2ccncc2)CN(C)CC1 (single isomer, unassigned) [19b, 1-(2,6-dimethyl-1,2,3,4-tetrahydro-β-carbolin-9-yl)-2-pyridin-4-yl-propan-2-ol] | 9% | 27% | 62% | –
COc1ccc(C(O)Cn2c3c(c4cc(C)ccc42)CCN(C)C3)cc1 (single isomer, unassigned) [20a, 2-(2,6-dimethyl-1,2,3,4-tetrahydro-β-carbolin-9-yl)-1-(4-methoxy-phenyl)-ethanol] | – | – | 67% | inhibition at 0.1 µM [1]: 29%; inhibition at 0.03 µM [2, 5]: 28%
COc1ccc(C(O)Cn2c3c(c4cc(C)ccc42)CCN(C)C3)cc1 (single isomer, unassigned) [20b, 2-(2,6-dimethyl-1,2,3,4-tetrahydro-β-carbolin-9-yl)-1-(4-methoxy-phenyl)-ethanol] | 28% | 36% | 94% | –

More lines, main results first:

Percentage inhibition of ligand binding, Adrenergic α2A [1] | Percentage inhibition of ligand binding, Adrenergic α2B [2, 4] | Percentage inhibition of ligand binding, Adrenergic α1B ([3]; 0.1 µM) | Compound | other results
−1% | −2% | 5% | Cc1ccc2c(c1)c1c(n2CC(O)c2cccnc2)CCN(CCO)C1 (single isomer, unassigned) [21a] | –
−3% | 1% | −2% | Cc1ccc2c(c1)c1c(n2CC(O)c2cccnc2)CCN(CCO)C1 (single isomer, unassigned) [21b] | –
16% | – | 19% | Cc1ccc2c(c1)c1c(n2CC(O)c2ccccn2)CN(C)CC1 (single isomer, unassigned) [22a] | inhibition at 0.03 µM [2, 5]: 22%
0% | 30% | 9% | Cc1ccc2c(c1)c1c(n2CC(O)c2ccccn2)CN(C)CC1 (single isomer, unassigned) [22b] | –
4% | 6% | −20% | CN1CCc2c(c3cc(C(C)(C)O)ccc3n2CC(O)c2ccncc2)C1 (single isomer, unassigned) [23a, 2-(2,3,4,5-tetrahydro-5-(2-hydroxy-2-(pyridin-4-yl)ethyl)-2-methyl-1H-pyrido[4,3-b]indol-8-yl)propan-2-ol] | –
1% | −3% | 4% | CN1CCc2c(c3cc(C(C)(C)O)ccc3n2CC(O)c2ccncc2)C1 (single isomer, unassigned) [23b, 2-(2,3,4,5-tetrahydro-5-(2-hydroxy-2-(pyridin-4-yl)ethyl)-2-methyl-1H-pyrido[4,3-b]indol-8-yl)propan-2-ol] | –
– | 63% | – | Cc1ccc2c(c1)c1c(n2CC(C)(O)c2cccnc2)CCNC1 (single isomer, unassigned) [24a] | inhibition at 0.1 µM [1]: 8%; inhibition at 0.1 µM [3]: 8%
15% | 29% | – | Cc1ccc2c(c1)c1c(n2CC(C)(O)c2cccnc2)CCNC1 (single isomer, unassigned) [24b] | Percentage inhibition of ligand binding, Adrenergic α1B [3]: 8%
12% | 75% and 88% | 15% | Cc1cnc2c(c1)c1c(n2CC(C)(O)c2cccnc2)CCN2CCCC12 (single isomer, unassigned) [26b] | inhibition at 0.1 µM ([2]; compound at 0.1 μM, [3H]Rauwolscine, repeat assays, each datapoint shown, read-out: Percentage inhibition of ligand binding, Adrenergic α2B): 100%; Ki ([2]; read-out: Ki α2B): 3.06 nM
19% | 1% and 7% | 1% | Cc1cnc2c(c1)c1c(n2CC(C)(O)c2cccnc2)CCN2CCCC12 (single isomer, unassigned) [26c] | –
0% | 6% and 11% | −2% | Cc1cnc2c(c1)c1c(n2CC(C)(O)c2cccnc2)CCN2CCCC12 (single isomer, unassigned) [26d] | –
